Laboratory results from the NIST ThermoML archive (doi:10.1016/j.tca.2011.12.021).

Columns and labels:
[1] = 101.3 kPa, Crystal, Hot wire method
[2] = wn = mass fraction of the nth substance listed; settings: 101 kPa, Crystal, Hot wire method

CC(C)(CO)CO [2,2-dimethyl-1,3-propanediol]
[1]
Settings | thermal conductivity [W/m/K]
323 K | 0.4
333 K | 0.38
343 K | 0.36
353 K | 0.33
363 K | 0.32
373 K | 0.29
383 K | 0.3
393 K | 0.31

CC(C)(CO)CO [2,2-dimethyl-1,3-propanediol] + CC1(C)[C@@H]2CC[C@@]1(C)C(=O)C2
[2]
Settings | thermal conductivity [W/m/K]
298 K, w2 = 0.7 | 0.35
303 K, w2 = 0.03 | 0.38
303 K, w2 = 0.3 | 0.37
303 K, w2 = 0.7 | 0.34
303 K, w2 = 0.96 | 0.3
308 K, w2 = 0.3 | 0.36
308 K, w2 = 0.7 | 0.34
313 K, w2 = 0.03 | 0.37
313 K, w2 = 0.3 | 0.35
313 K, w2 = 0.7 | 0.33
313 K, w2 = 0.96 | 0.3
315 K, w2 = 0.7 | 0.33
317 K, w2 = 0.7 | 0.33
318 K, w2 = 0.3 | 0.34
319 K, w2 = 0.7 | 0.32
321 K, w2 = 0.7 | 0.32
323 K, w2 = 0 | 0.4
323 K, w2 = 0.03 | 0.36
323 K, w2 = 0.3 | 0.33
323 K, w2 = 0.7 | 0.32
323 K, w2 = 0.96 | 0.3
325 K, w2 = 0.7 | 0.31
328 K, w2 = 0.3 | 0.32
328 K, w2 = 0.7 | 0.31
333 K, w2 = 0 | 0.38
333 K, w2 = 0.03 | 0.35
333 K, w2 = 0.3 | 0.31
333 K, w2 = 0.7 | 0.31
333 K, w2 = 0.96 | 0.29
338 K, w2 = 0.7 | 0.31
343 K, w2 = 0 | 0.36
343 K, w2 = 0.03 | 0.34
343 K, w2 = 0.7 | 0.31
343 K, w2 = 0.96 | 0.29
348 K, w2 = 0.7 | 0.3
353 K, w2 = 0 | 0.33
353 K, w2 = 0.03 | 0.32
353 K, w2 = 0.7 | 0.3
353 K, w2 = 0.96 | 0.29
358 K, w2 = 0.7 | 0.29
363 K, w2 = 0 | 0.32
363 K, w2 = 0.7 | 0.28
363 K, w2 = 0.96 | 0.28
373 K, w2 = 0 | 0.29
373 K, w2 = 0.96 | 0.28
383 K, w2 = 0 | 0.3
383 K, w2 = 0.96 | 0.28
393 K, w2 = 0 | 0.31
393 K, w2 = 0.96 | 0.27
403 K, w2 = 0.96 | 0.27
413 K, w2 = 0.96 | 0.26
423 K, w2 = 0.96 | 0.26
433 K, w2 = 0.96 | 0.25
